Experimental data from patent US20140220069A1, “ACTIVE INGREDIENT DERIVED FROM TORULASPORA DELBRUECKII AND COSMETIC USE FOR IMPROVING AND/OR REPAIRING THE BARRIER FUNCTION OF THE SKIN” (SOCIETE INDUSTRIELLE LIMOUSINE D'APPLICATION BIOLOGIQUE, priority 2011, published 2014).

Tests used:
[1] = test system: loricrin; assay: Synthesis of loricrin by Western Blot on normal human keratinocytes in a single layer; type: cell-based; details: for effect on the synthesis of human keratinocyte loricrin in a single layer: human keratinocytes in a single layer
Method: The test is done on normal human keratinocytes, according to the operating procedure described in Item A.II of the part on the evaluation of the cosmetic effectiveness.
It was accomplished by Western Blot on normal human keratinocytes that are isolated from foreskins, according to the operating procedure described below.
On D0, the human keratinocytes are inoculated and then incubated at 37° C.
The cells are then incubated at 37° C.
On D7, the cellular extracts are recovered, and the Western Blot metering is carried out.

[2] = test system: loricrin; assay: Synthesis of loricrin on reconstructed epidermis (immunohistological marking, image analysis); type: cell-based, human; details: for Synthesis of Loricrin: D18, untreated control 100%; for synthesis of loricrin relative to the untreated control: mecamylamine 1,000 μM, nicotine 500 μM
Method: (§1) The procedure used to validate the agonist and the antagonist of the nAChRs is illustrated below for the synthesis of loricrin on reconstructed epidermis. It also applies to the synthesis of E-cadherin on reconstructed epidermis. The inserts comprising the epidermis under construction are placed in a culture medium containing: • 1,000 μM of mecamylamine (reversible antagonist of the nACHRs) or • 500 μM of nicotine (reversible agonist of the nACHRs).
On D18, the inserts are recovered, fixed, dehydrated, and incorporated into paraffin.
Cuts are made, and then an immunohistological marking of the loricrin is done.
Visualization is then done on a microscope coupled to an image analysis system. The intensity of the fluorescence (green color) is proportional to the synthesis of loricrin.
(§2) On D0, the human keratinocytes are cultivated in a culture medium and then inoculated on an insert.
(§3) On D13 and/or D18, the inserts are recovered, fixed, dehydrated, and incorporated into paraffin.
(§4) Next, cuts are made, and then an immunohistological marking of the loricrin or the E-cadherin is done.
(§5) The display is then produced on a microscope coupled to an image analysis system. The intensity of the fluorescence (green color) is proportional to the synthesis of loricrin or cadherin.

[3] = test system: E-cadherin; assay: Synthesis of E-cadherin on reconstructed epidermis (immunohistological marking, image analysis); type: cell-based, human
Method: as §1, §2, §3, §4, §5

Row | SMILES | Change in loricrin synthesis versus control ([1]; 350 μM, normal human keratinocytes, Western Blot on D7) [%] | effect on the synthesis of human keratinocyte loricrin in a single layer [1] | Synthesis of Loricrin ([2]; 1,000 μM) [%] | synthesis of loricrin relative to the untreated control [2] | effect on the synthesis of E-cadherin on reconstructed epidermis [3] | Ratio of Loricrin/Control (%) [1] | Synthesis of Loricrin ([2]; 500 μM) [%]
1 | CNC1(C)C2CCC(C2)C1(C)C (stereo not shown) [Mecamylamine, mecamylamine] | −57 | inhibiting effect | 53 | reduced | inhibiting effect |  | 
2 | CN1CCCC1c1cccnc1 (stereo not shown) [Nicotine, nicotine] |  | stimulating effect |  | increased | stimulating effect | +51% | 113
